Laboratory results as given in patent US6358885B1, “Substituted phenylheterocyclic herbicides” (Mississippi State University, priority 1992, dated 2002).

Key:
barnyardgrass [1] = test: Test C flood test plant response rating 0 to 100; format: in vivo, Echinochloa crus-galli
Method in brief: (§1)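 Compounds in non-phytotoxic solvent applied preemergence to sandy loam one day after planting, postemergence at the 1–4 leaf stage, or to ~2.5 cm floodwater over silt loam.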

chickweed = test: Test C preemergence/postemergence greenhouse plant response rating 0 to 100; format: in vivo, Stellaria media; settings: POSTEMERGENCE
Method in brief: as §1

giant foxtail [2] = test: Test B preemergence/postemergence greenhouse plant response rating 0 to 10; format: in vivo, Setaria faberii; settings: 0 to 10 scale
Method in brief: (§2)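 Test chemicals were sprayed onto freshly planted seed and, concurrently, onto young plants between the one and four leaf stage. After a twelve- to sixteen-day greenhouse period, each species was visually compared with untreated controls.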

downy brome = test: Test C preemergence/postemergence greenhouse plant response rating 0 to 100; format: in vivo, Bromus tectorum; settings: POSTEMERGENCE
Method in brief: as §1

umbrella sedge = test: Test C flood test plant response rating 0 to 100; format: in vivo, Cyperus difformis
Method in brief: as §1

giant foxtail [3] = test: Test C preemergence/postemergence greenhouse plant response rating 0 to 100; format: in vivo, Setaria faberii; settings: POSTEMERGENCE
Method in brief: as §1

rape = test: as above; format: in vivo, Brassica napus; settings: POSTEMERGENCE
Method in brief: as §1

crabgrass = test: Test B preemergence/postemergence greenhouse plant response rating 0 to 10; format: in vivo, Digitaria spp.; settings: 0 to 10 scale
Method in brief: as §2

soybean = test: Test C preemergence/postemergence greenhouse plant response rating 0 to 100; format: in vivo, Glycine max; settings: POSTEMERGENCE
Method in brief: as §1

wild buckwheat = test: Test B preemergence/postemergence greenhouse plant response rating 0 to 10; format: in vivo, Polygonum convolvulus; settings: 0 to 10 scale
Method in brief: as §2

purple nutsedge = test: as above; format: in vivo, Cyperus rotundus; settings: 0 to 10 scale
Method in brief: as §2

wild oat [4] = test: Test C preemergence/postemergence greenhouse plant response rating 0 to 100; format: in vivo, Avena fatua; settings: POSTEMERGENCE
Method in brief: as §1

cocklebur = test: Test B preemergence/postemergence greenhouse plant response rating 0 to 10; format: in vivo, Xanthium pensylvanicum; settings: 0 to 10 scale
Method in brief: as §2

rice = test: Test C flood test plant response rating 0 to 100; format: in vivo, Oryza sativa
Method in brief: as §1

barnyardgrass [5] = test: Test B preemergence/postemergence greenhouse plant response rating 0 to 10; format: in vivo, Echinochloa crus-galli; settings: 0 to 10 scale
Method in brief: as §2

lambsquarters = test: as above; format: in vivo, Chenopodium album; settings: 0 to 10 scale
Method in brief: as §2

cotton = test: Test C preemergence/postemergence greenhouse plant response rating 0 to 100; format: in vivo, Gossypium hirsutum; settings: POSTEMERGENCE
Method in brief: as §1

wild oat [6] = test: Test B preemergence/postemergence greenhouse plant response rating 0 to 10; format: in vivo, Avena fatua; settings: 0 to 10 scale
Method in brief: as §2

[7] = POSTEMERGENCE section, flood test, Rate 1 g/ha
[8] = POSTEMERGENCE section, flood test, Rate 4 g/ha
[9] = Rate 16 g/ha, under POSTEMERGENCE head (flood test species)
[10] = flood test species listed under POSTEMERGENCE, 62 g/ha, 0 to 100 scale

COCN1C(=O)COc2cc(F)c(-c3nn4c(c3Cl)CCCC4)cc21 [Compound 55]
10: Plant response rating (0 to 100), Barnyardgrass 2 (barnyardgrass [1]; [7]) | Plant response rating (0 to 100), Umbrella sedge (umbrella sedge; [7]) | Plant response rating, Wild buckwheat (wild buckwheat; POSTEMERGENCE, Rate 10 g/ha) | Plant response rating, Wild buckwheat (wild buckwheat; PREEMERGENCE, Rate 50 g/ha) | Plant response rating, Cocklebur (cocklebur; POSTEMERGENCE, Rate 10 g/ha) | Plant response rating, Cocklebur (cocklebur; POSTEMERGENCE, Rate 50 g/ha) | Plant response rating (0 to 100), Rice Japonica (rice; [7]) | Plant response rating, Lambsquarter (lambsquarters; POSTEMERGENCE, Rate 10 g/ha) | Plant response rating, Lambsquarter (lambsquarters; POSTEMERGENCE, Rate 50 g/ha) | Plant response rating, Lambsquarter (lambsquarters; PREEMERGENCE, Rate 50 g/ha)
20: Plant response rating (0 to 100), Giant foxtail (giant foxtail [3]; Rate 1 g/ha) | Plant response rating (0 to 100), Wild oat (wild oat [4]; Rate 1 g/ha)
30: Plant response rating (0 to 100), Chickweed (chickweed; Rate 1 g/ha) | Plant response rating (0 to 100), Downy Brome (downy brome; Rate 1 g/ha) | Plant response rating (0 to 100), Umbrella sedge (umbrella sedge; [8]) | Plant response rating (0 to 100), Giant foxtail (giant foxtail [3]; Rate 4 g/ha) | Plant response rating (0 to 100), Wild oat (wild oat [4]; Rate 4 g/ha) | Plant response rating (0 to 100), Rice Japonica (rice; [8])
90: Plant response rating (0 to 100), Barnyardgrass 2 (barnyardgrass [1]; [9]) | Plant response rating Umbrella sedge (umbrella sedge; [10]) | Plant response rating (0 to 100), Soybean (soybean; Rate 16 g/ha) | Plant response rating Rice Japonica (rice; [10]) | Plant response rating (0 to 100), Cotton (cotton; Rate 1 g/ha)
70: Plant response rating (0 to 100), Chickweed (chickweed; Rate 4 g/ha) | Plant response rating Downy Brome (downy brome; 62 g/ha, 0 to 100 scale) | Plant response rating (0 to 100), Umbrella sedge (umbrella sedge; [9]) | Plant response rating (0 to 100), Soybean (soybean; Rate 4 g/ha) | Plant response rating (0 to 100), Rice Japonica (rice; [9])
0: Plant response rating, Crabgrass (crabgrass; PREEMERGENCE, Rate 10 g/ha) | Plant response rating, Wild buckwheat (wild buckwheat; POSTEMERGENCE, Rate 50 g/ha) | Plant response rating, Nutsedge (purple nutsedge; PREEMERGENCE, Rate 50 g/ha) | Plant response rating, Barnyardgrass (barnyardgrass [5]; PREEMERGENCE, Rate 10 g/ha)
7: Plant response rating, Wild oat (wild oat [6]; POSTEMERGENCE, Rate 50 g/ha)
6: Plant response rating, Giant foxtail (giant foxtail [2]; POSTEMERGENCE, Rate 50 g/ha) | Plant response rating, Crabgrass (crabgrass; PREEMERGENCE, Rate 50 g/ha) | Plant response rating, Barnyardgrass (barnyardgrass [5]; POSTEMERGENCE, Rate 50 g/ha) | Plant response rating, Barnyardgrass (barnyardgrass [5]; PREEMERGENCE, Rate 50 g/ha) | Plant response rating, Wild oat (wild oat [6]; POSTEMERGENCE, Rate 10 g/ha)
40: Plant response rating (0 to 100), Downy Brome (downy brome; Rate 4 g/ha) | Plant response rating (0 to 100), Giant foxtail (giant foxtail [3]; Rate 16 g/ha) | Plant response rating (0 to 100), Soybean (soybean; Rate 1 g/ha) | Plant response rating (0 to 100), Wild oat (wild oat [4]; Rate 16 g/ha)
100: Plant response rating Barnyardgrass 2 (barnyardgrass [1]; [10]) | Plant response rating, Chickweed (chickweed; 62 g/ha, 0 to 100 scale) | Plant response rating (0 to 100), Chickweed (chickweed; Rate 16 g/ha) | Plant response rating, Rape (rape; 62 g/ha, 0 to 100 scale) | Plant response rating (0 to 100), Rape (rape; Rate 4 g/ha) | Plant response rating (0 to 100), Rape (rape; Rate 16 g/ha) | Plant response rating, Cotton (cotton; 62 g/ha, 0 to 100 scale) | Plant response rating (0 to 100), Cotton (cotton; Rate 4 g/ha) | Plant response rating (0 to 100), Cotton (cotton; Rate 16 g/ha)
95: Plant response rating, Soybean (soybean; 62 g/ha, 0 to 100 scale)
4: Plant response rating, Giant foxtail (giant foxtail [2]; POSTEMERGENCE, Rate 10 g/ha)
9: Plant response rating, Wild oat (wild oat [6]; PREEMERGENCE, Rate 50 g/ha)
60: Plant response rating (0 to 100), Barnyardgrass 2 (barnyardgrass [1]; [8]) | Plant response rating (0 to 100), Downy Brome (downy brome; Rate 16 g/ha) | Plant response rating (0 to 100), Rape (rape; Rate 1 g/ha) | Plant response rating, Wild oat (wild oat [4]; 62 g/ha, 0 to 100 scale)
2: Plant response rating, Giant foxtail (giant foxtail [2]; PREEMERGENCE, Rate 10 g/ha) | Plant response rating, Crabgrass (crabgrass; POSTEMERGENCE, Rate 10 g/ha) | Plant response rating, Nutsedge (purple nutsedge; POSTEMERGENCE, Rate 10 g/ha) | Plant response rating, Nutsedge (purple nutsedge; POSTEMERGENCE, Rate 50 g/ha) | Plant response rating, Cocklebur (cocklebur; PREEMERGENCE, Rate 50 g/ha) | Plant response rating, Barnyardgrass (barnyardgrass [5]; POSTEMERGENCE, Rate 10 g/ha)
50: Plant response rating, Giant foxtail (giant foxtail [3]; 62 g/ha, 0 to 100 scale)
3: Plant response rating, Crabgrass (crabgrass; POSTEMERGENCE, Rate 50 g/ha)
8: Plant response rating, Giant foxtail (giant foxtail [2]; PREEMERGENCE, Rate 50 g/ha)
